≈ marks a conversion by molar mass, not a printed value.
Key:
[1] = tested on: Trichophyton rubrum; experiment: Antifungal agar dilution; conditions: read-out: Minimal Inhibitory Concentration
[2] = tested on: Mycobacterium tuberculosis; conditions: agar dilution
Experimental: (§2) Antimycobacterial Activity of the Basiliskamides: The Basiliskamides were tested for antimycobacierial activity using a standardized agar dilution method (Underlied, C B and Salfinger, S. 1995. In Manual of Clinical Microbiology, Murray, Baron, Pfaller, Tenover, Yolken (Eds.), ASM Press, page 1395-1404).

[3] = tested on: Aspergillus fumigatus; experiment: Antifungal agar dilution
[4] = tested on: M. avium-intracellulare; assay type: cell-based, Mycobacterium avium-infracellulare; conditions: agar dilution
[5] = tested on: Candida albicans; experiment: Antifungal macrobroth dilution (NCCLS M27-A); conditions: read-out: Minimal Inhibitory Concentration
[6] = tested on: Candida albicans; experiment: Antifungal agar dilution
[7] = tested on: Trichophyton rubrum; experiment: Antifungal macrobroth dilution (NCCLS M27-A); conditions: read-out: Minimal Inhibitory Concentration
[8] = tested on: Mycobacterium tuberculosis; experiment: microbe, parasite or virus in culture; conditions: read-out: Minimal Inhibitory Concentration
Experimental: as §2

[9] = tested on: Aspergillus fumigatus; experiment: Antifungal macrobroth dilution (NCCLS M27-A); conditions: read-out: Minimal Inhibitory Concentration
[10] = tested on: normal human fibroblast cells; experiment: Cytotoxicity testing, cytopathic effect; assay type: cell-based; set-up: key to Cytopathic Effect (48 hours): 1: slight change in morphology vs. control; 2: occasional rounding, vacuolization, or granularity; 3: rounding, vacuolization, detachment of 50% of cells; 4: destruction of monolayer; conditions: for Cytopathic Effect (48 hours): Human Fibroblast
Experimental: (§1) Cytotoxicity Testing of Basiliskamide A: Serial dilutions of basiliskamide A were prepared in cell culture medium and tested for toxicity for normal human fibroblast cells and for human tumor cell line. […] The appearance of the cells was assessed after 48 hours exposure to the compounds. Basiliskamide produced no cytotoxicity for normal human fibroblast cells at concentrations less than 100 μg/ml compared to amphotericin B (ampho) which was toxic at concentrations as low as 25 μg/ml.

[11] = tested on: human tumor cell line; experiment: Cytotoxicity testing, cytopathic effect; assay type: cell-based; set-up: key: 1: slight change in morphology vs. control; 2: occasional rounding, vacuolization, or granularity; 3: rounding, vacuolization, detachment of 50% of cells; 4: destruction of monolayer
Experimental: as §1

[12] = tested on: Clinical Isolates of Candida albicans; experiment: Macrobroth dilution against 7 clinical isolates
[13] = read-out: Minimal Inhibitory Concentration

What does the source list for `CC[C@@H](C)[C@H](O)[C@H](C)[C@@H](C/C=C/C=C\C(N)=O)OC(=O)/C=C/c1ccccc1` [Basiliskamide B]?
MIC [1]: 5 µg/mL (≈ 13 µM); activity against M. tuberculosis (in words) [2]: have activity; activity relative to YL-03709B-A ([3]; agar dilution, from Table 5): significantly more active; MIC [3, 13]: 5 µg/mL (≈ 13 µM); MIC ([4]; Mycobacterium, M. avium-intracellulare, read-out: Minimal Inhibitory Concentration): > 100 µg/mL; activity against M. avium-intracellulare (in words) [4]: relatively inactive; MIC [5]: ≥ 32 µg/mL; activity relative to YL-03709B-A ([6]; agar dilution, from Table 5): significantly more active; MIC [6, 13]: 3.1 µg/mL (≈ 8.04 µM); MIC [7]: 4 µg/mL (≈ 10.4 µM); MIC [8]: 50 µg/mL (≈ 130 µM); MIC [9]: ≥ 32 µg/mL

For `C[C@@H]1[C@H](O)[C@@H](C)/C=C/C=C/C=C/C=C/C=C/C=C/C=C/[C@H](O[C@@H]2O[C@H](C)[C@@H](O)[C@H](N)[C@@H]2O)C[C@@H]2O[C@](O)(C[C@@H](O)C[C@@H](O)[C@H](O)CC[C@@H](O)C[C@@H](O)CC(=O)O[C@H]1C)C[C@H](O)[C@H]2C(=O)O` [Amphotericin B], which “Cytopathic Effect (48 hours)” value ([10]; 0.78 μg/ml) is on record?
Its value is 0.

And the “Cytopathic Effect (48 hours)” value ([10]; 1.57 μg/ml)?
Its value is 0.

And the “Cytopathic Effect (48 hours)” value ([10]; 3.12 μg/ml)?
Its value is 0.

What about the “Cytopathic Effect (48 hours)” value ([10]; 6.25 μg/ml) of the same compound?
Its value is 0.

What about the “Cytopathic Effect (48 hours)” value ([10]; 12.5 μg/ml) of the same compound?
Its value is 1.

What about the “Cytopathic Effect (48 hours)” value ([10]; 25 μg/ml) of the same compound?
The value was 2.

What about the “Cytopathic Effect (48 hours)” value ([10]; 50 μg/ml) of the same compound?
The value was 2.

What about the “Cytopathic Effect (48 hours)” value ([10]; 100 μg/ml) of the same compound?
The value was 4.

And the “concentrations at which toxic” value ([10]; normal human fibroblast cells, 48 hours exposure)?
Its value is ≥ 25000 ng/mL.

What about the “Cytopathic Effect (48 hours)” value ([11]; 0.78 μg/ml) of the same compound?
Its value is 0.

What about the “Cytopathic Effect (48 hours)” value ([11]; 1.57 μg/ml) of the same compound?
Its value is 0.

What about the “Cytopathic Effect (48 hours)” value ([11]; 3.12 μg/ml) of the same compound?
The value was 0.

And the “Cytopathic Effect (48 hours)” value ([11]; 6.25 μg/ml)?
The value was 0.

And the “Cytopathic Effect (48 hours)” value ([11]; 12.5 μg/ml)?
The value was 0.

And the “Cytopathic Effect (48 hours)” value ([11]; 25 μg/ml)?
Its value is 1.

And the “Cytopathic Effect (48 hours)” value ([11]; 50 μg/ml)?
Its value is 3.

And the “Cytopathic Effect (48 hours)” value ([11]; 100 μg/ml)?
The value was 4.

What about the “Minimal Inhibitory Concentration” value ([12]; C. albicans clinical isolate 8167) of the same compound?
Its value is 0.5 µg/mL.

And the “Minimal Inhibitory Concentration” value ([12]; C. albicans clinical isolate 8362)?
Its value is 0.5 µg/mL.

What about the “Minimal Inhibitory Concentration” value ([12]; C. albicans clinical isolate 8363) of the same compound?
Its value is 0.5 µg/mL.

What about the “Minimal Inhibitory Concentration” value ([12]; C. albicans clinical isolate 8364) of the same compound?
Its value is 0.5 µg/mL.

What about the “Minimal Inhibitory Concentration” value ([12]; C. albicans clinical isolate 8365) of the same compound?
Its value is 0.5 µg/mL.

And the “Minimal Inhibitory Concentration” value ([12]; C. albicans clinical isolate 8366)?
The value was 0.5 µg/mL.

And the “Minimal Inhibitory Concentration” value ([12]; C. albicans clinical isolate 8367)?
The value was 0.5 µg/mL.
